The source of these data is patent US5541194A (priority 1987, dated 1996).

Where two headings read alike, the source gives them in different places.

In test [1] the target is muscarinic receptors. The class given is binding, Hooded Lister rats. As to conditions: displacement of 0.27 nM 3H-QNB; rat cerebral cortex membranes; 37° C., 30 min; ^+ tested as the oxalate salt, ^++ tested as the hydrochloride salt.
Test [2] concerns the target muscarinic receptors. Kind of test: Radio ligand binding: displacement of muscarinic agonist 3H-Oxotremorine-M (3H-OXO-M) in rat cerebral cortex. More on the design: species or system Hooded Lister rats. As to conditions: displacement of 2 nM 3H-OXO-M; rat cerebral cortex membranes; 37° C., 30 min; 2 mM magnesium chloride; ^+ tested as the oxalate salt, ^++ tested as the hydrochloride salt.

Consider `Cc1ccc([C@@H]2CN3CC[C@@H]2C3)o1` (relative stereo) [Example E5, (±) exo-3-(5-Methyl-fur-2-yl)-1-azabicyclo[2.2.1]heptane], for which the half-maximal inhibitory concentration (IC50) at muscarinic receptors [1] turned out to be 3.2 µM; at muscarinic receptors [2], 0.115 µM.

As for `CCc1ncc(C2CN3CCC2C3)o1` (racemic) [Example E14, (±) 3-(2-Ethyl-1,3-oxazol-5-yl)-1-azabicyclo[2.2.1]heptane], the results for the IC50 on muscarinic receptors [1] and at muscarinic receptors [2] were 9.6 µM and 0.8 µM, respectively.

In the case of `c1cc(C2CN3CCC2CC3)co1` (racemic) [Example E10, (±) 3-(Fur-3-yl)-1-azabicyclo[2.2.2]octane], the IC50 on muscarinic receptors [1] is 19.5 µM; at muscarinic receptors [2] it was 0.834 µM.

For the compound `c1cc([C@@H]2CN3CC[C@@H]2C3)on1` (relative stereo) [Example E13, (±) exo-3-(1,2-Oxazol-5-yl)-1-azabicyclo[2.2.1]heptane], the values for the concentration for half-maximal inhibition (IC50) on muscarinic receptors [1] and at muscarinic receptors [2] were 30.3 µM and 0.173 µM, respectively.

Take `Cc1ncc([C@@H]2CN3CC[C@@H]2C3)o1` (relative stereo) [Example E8A, (±) exo- and endo-3-(2-Methyl-1,3-oxazol-5-yl)-1-azabicyclo[2.2.1]heptane]: the figures for the 50% inhibitory concentration (IC50) on muscarinic receptors [1] and on muscarinic receptors [2] were 7.5 µM and 0.024 µM, respectively.

Consider `c1coc([C@@H]2CN3CC[C@@H]2C3)c1` (relative stereo) [Example E4, (±) exo-3-(Fur-2-yl)-1-azabicyclo[2.2.1]heptane], for which the 50% inhibitory concentration (IC50) at muscarinic receptors [1] came out at 7 µM; on muscarinic receptors [2], 0.088 µM.

For the compound `c1cc(C2CN3CCC2CC3)on1` (racemic) [Example E1, (±) 3-(1,2-Oxazol-5-yl)-1-azabicyclo[2.2.2]octane], the figures for the IC50 on muscarinic receptors [1] and on muscarinic receptors [2] were 15.5 µM and 0.477 µM, respectively.

On to `Cc1ncc(C2CN3CCC2CC3)o1` (racemic) [Example E7, (±) 3-(2-Methyl-1,3-oxazol-5-yl)-1-azabicyclo[2.2.2]octane], for which the IC50 was 4.4 µM on muscarinic receptors [1] and 0.105 µM on muscarinic receptors [2].

With `Cc1cc(C2CN3CCC2CC3)on1` (racemic) [Example E6, (±)3-(3-Methyl-1,2-oxazol-5-yl)-1-azabicyclo[2.2.2]octane], the IC50 on muscarinic receptors [1] is 4.3 µM; on muscarinic receptors [2], 0.395 µM.

As to `Cc1cc([C@@H]2CN3CC[C@@H]2C3)on1` (relative stereo) [Example E9, (±) exo-3-(3-Methyl-1,2-oxazol-5-yl)-1-azabicyclo[2.2.1]heptane], the half-maximal inhibitory concentration (IC50) came to 7.5 µM on muscarinic receptors [1] and 0.102 µM on muscarinic receptors [2].

With `c1ncc(C2CN3CCC2CC3)o1` (racemic) [Example E11, (±) 3-(1,3-Oxazol-5-yl)-1-azabicyclo[2.2.2]octane], the 50% inhibitory concentration (IC50) on muscarinic receptors [1] was determined as 24 µM; on muscarinic receptors [2], 0.48 µM.

For `c1ncc(C2CN3CCC2C3)o1` (racemic) [Example E12, (±) exo and endo-3-(1,3-Oxazol-5-yl)-1-azabicyclo[2.2.1]heptane], the IC50 on muscarinic receptors [1] turned out to be 29 µM; at muscarinic receptors [2], 0.15 µM.

By IC50 is commonly meant the concentration that gives 50% inhibition.
